Test [1] has as its target T1, estrogen receptor (Homo sapiens, UniProt P03372).
T1 sequence (P03372 1-595): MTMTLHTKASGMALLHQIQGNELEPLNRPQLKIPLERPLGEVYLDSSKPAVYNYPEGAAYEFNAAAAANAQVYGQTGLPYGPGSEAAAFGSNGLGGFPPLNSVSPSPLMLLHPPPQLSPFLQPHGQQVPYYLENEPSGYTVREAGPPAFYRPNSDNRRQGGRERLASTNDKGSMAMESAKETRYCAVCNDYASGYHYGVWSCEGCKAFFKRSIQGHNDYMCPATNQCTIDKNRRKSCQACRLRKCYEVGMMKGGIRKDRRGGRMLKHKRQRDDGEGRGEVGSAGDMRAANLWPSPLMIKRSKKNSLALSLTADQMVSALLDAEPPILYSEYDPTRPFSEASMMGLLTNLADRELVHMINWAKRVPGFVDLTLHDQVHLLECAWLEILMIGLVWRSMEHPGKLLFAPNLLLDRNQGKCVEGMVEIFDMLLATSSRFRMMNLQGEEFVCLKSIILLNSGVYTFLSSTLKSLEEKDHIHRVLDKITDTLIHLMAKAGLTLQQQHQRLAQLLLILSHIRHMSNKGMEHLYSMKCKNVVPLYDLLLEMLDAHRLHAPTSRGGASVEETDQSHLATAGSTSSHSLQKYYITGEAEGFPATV
Briefly: In vitro estrogen receptor binding assay (competition with [3H]-17β-estradiol). Details: expressed in transfected cells; host or cells: CHO cells (ribosome-free cytosol). As to conditions: relative to 17β-estradiol=100; cytosol of CHO cells overexpressing the estrogen receptor. The method, then: CHO cells overexpressing the estrogen receptor were grown in 150 mm^2 dishes in DMEM + 10% dextran coated charcoal, stripped fetal bovine serum. The plates were washed twice with PBS and once with 10mM Tris-HCl, pH 7.4, 1mM EDTA. Cells were harvested by scraping the surface and then the cell suspension was placed on ice. Cells were disrupted with a hand-held motorized tissue grinder using two, 10-second bursts. The crude preparation was centrifuged at 12,000g for 20 minutes followed by a 60 minute spin at 100,000g to produce a ribosome free cytosol. The cytosol was then frozen and stored at -80°C. Protein concentration of the cytosol was estimated using the BCA assay with reference standard protein.
100uG/100uL of the receptor preparation was aliquoted per well. […] The plate was incubated at room temperature for 2.5 h. At the end of this incubation period 150 uL of ice-cold dextran coated charcoal (5% activated charcoal coated with 0.05% 69K dextran) was added to each well and the plate was immediately centrifuged at 99g for 5 minutes at 4°C. 200 uL of the supernatant solution was then removed for scintillation counting. Samples were counted to 2% or 10 minutes, whichever occurs first. […] Also, wells containing radioactivity but no cytosol were processed with charcoal to estimate unremovable DPM of [^3H]
Counts per minute (CPM) of radioactivity were automatically converted to disintegrated per minute (DPM) by the Beckman LS 7500 Scintillation Counter using a set of quenched standards to generate a H# for each sample.
For the generation of IC50 curves, % binding is plotted vs compound. […] For a description of these methods, see Hulme, E.C., ed. 1992. Receptor-Ligand Interactions: A Practical Approach. IRL Press, New York.(see especially chapter 8).

The subject of the next test is Ishikawa cells. Briefly: Ishikawa Cell Alkaline Phosphatase Assay. The class given is cell-based, human. As to conditions: for % Activation (Compound + 1 nM 17β-estradiol): 10^-6 M compound + 10^-9 M 17β-estradiol; for % Activation (Compound + 1 nM 17β-estradiol) / % Activation: 48 h; for % Activation: compound alone, percent of response related to 1 nM 17β-estradiol. On the procedure: Cells were treated for 48 h prior to assay. […] Sample population for at each dose was n=8. […] Plates are placed at -80°C for a minimum of 15 minutes. Plates are thawed at 37°C followed by the addition of 150μL of 0.1 M Tris-HCl, pH 9.8, containing 4 mM para-nitrophenylphosphate (pNPP) to each well (final concentration, 3 mM pNPP). Absorbance and slope calculations were made using the […] Application program (Bio-Tek Instruments, Inc., Winooski, VT). […] Various compounds were assayed for estrogenic activity by the alkaline phosphatase method and corresponding ED50 values (95% C.I.) were calculated. The four listed in the following were used as reference standards: A description of such methods is provided by Holinka, […]., Kuramoto, H. and Gurpide, E. (1986) Effects of steroid hormones and antisteroids on alkaline phosphatase activity in human endometrial cancer cells (Ishikawa Line). Cancer Research, 46:2771-2774, and by […]. and by […] simple and sensitive microtiter plate estrogen bioassay based on stimulation alkaline phosphatase in Ishikawa cells; […] Endocrinology, 6:2757-2762.

In test [2] the target is T1, estrogen receptor. Briefly: 2X VIT ERE Transfection Assay (Infection Luciferase Assay). The format is cell-based. As to conditions: 24 h; for % Activation with 1 nM 17β-estradiol: 1 uM compound + 1 nM 17β-estradiol (test for estrogen antagonism); for % Activation: compound alone (1 uM), compared to 17β-estradiol. On the procedure: Chinese Hamster Ovary cells (CHO) which had been stably transfected with the human estrogen receptor were maintained in DMEM + 10% fetal bovine serum (FBS). 48h prior to treatment the growth medium was replaced with DMEM lacking phenol red + 10% dextran coated charcoal stripped FBS (treatment medium). Cells were plated at a density of 5000 cells/well in 96-well plates containing 200 µL of medium/well.
Reporter DNA (Promega plasmid pGL2 containing two tandem copies of the vitellogenin ERE in front of the minimal thymidine kinase promoter driving the luciferase gene) was combined with the B-galactosidase expression plasmid pCH110 (Pharmacia) and carrier DNA (pTZ18U) in the following ratio: • 10uG of reporter DNA • 5uG of pCH110DNA • 5 uG of pTZ18U • 20 uG of DNA/1 mL of transfection solution
20 uL of this mixture was added to each well of cells and remained on the cells for 16 h. […] Each treatment condition was performed on 8 wells (n=8) which were incubated for 24 h prior to the luciferase assay.
After removing the PBS, 25 uL of Promega lysis buffer was added to each well and allowed to stand at room temperature for 15 min, followed by 15 min at -80°C and 15 min at 37°C. 20 uL of lysate was transferred to an opaque 96 well plate for luciferase activity evaluation and the remaining lysate (5 uL) was used for the B-galactosidase activity evaluation (normalize transfection). The luciferan substrate (Promega) was added in 100 uL aliquots to each well automatically by the luminometer and the light produced (relative light units) was read 10 seconds after addition.
To the remaining 5 uL of lysate 45 uL of PBS was added. Then 50 uL of Promega B-galactosidase 2X assay buffer was added, mixed well and incubated at 37°C for 1 hour. A plate containing a standard curve (0.1 to 1.5 milliunits in triplicate) was set up for each experimental run. The plates were analyzed on a Molecular Devices spectrophotometric plate reader at 410 nm. The optical densities for the unknown were converted to milliunits of activity by mathematical extrapolation from the standard curve.
The luciferase data was generated as relative light units (RLUs) accumulated during a 10 second measurement and automatically transferred to a JMP (SAS Inc) file where background RLUs were subtracted. The B-galactosidase values were automatically imported into the file and these values were divided into the RLUs to normalize the data. The mean and standard deviations were determined from a n=8 for each treatment. […] These techniques are described by Tzukerman, M.T., Esty, A., Santiso-Mere, D., Danielian, P., Parker, M.G., Stein, R.B., Pike, J.W. and McDonnel, D.P. (1994). Human estrogen receptor transactivational capacity was determined by both cellular and promoter context and mediated by two functionally distinct intramolecular regions (see Molecular Endocrinology, 8:21-30).

In the case of `Cc1c(-c2ccc(O)cc2)n(Cc2ccc(C#CCN(C)C)cc2)c2ccc(O)cc12` [Example 21, 2-(4-Hydroxy-phenyl)-3-methyl-1-[4-(3-N, N-dimethyl-1-yl-prop-1-ynyl)-benzyl]-1H-indol-5-ol], the “Estrogen Receptor Affinity (reported as RBA: 17β-estradiol=100)” value (“Estrogen Receptor Affinity” below) on estrogen receptor [1] was found to be 53. Also, in the test with Ishikawa cells, the “% Activation (Compound + 1 nM 17β-estradiol)” value is reported as 34% and the “% Activation” value is recorded as 34%. For the same molecule, on estrogen receptor [2], the “% Activation with 1 nM 17β-estradiol” value came out at 34% and the “% Activation” value came out at 34%.

On to `Cc1c(-c2ccc(O)cc2)n(Cc2ccc(/C=C/C(=O)N3CCOCC3)cc2)c2ccc(O)cc12` [Example 13], for which, in the test with Ishikawa cells, the “% Activation (Compound + 1 nM 17β-estradiol)” value is listed as 9% and the “% Activation” value was found to be 7%. Moreover, at estrogen receptor [2], the “% Activation with 1 nM 17β-estradiol” value is given as 17% and the “% Activation” value came to 8%.

Regarding `CCN(CC)C(=O)/C=C/c1ccc(Cn2c(-c3ccc(O)cc3)c(C)c3cc(O)ccc32)cc1` [Example 7, (E)-N, N-Diethyl-3-{4-[5-hydroxy-2-(4-hydroxy-phenyl)-3-methyl-indol-1-ylmethyl]-phenyl}-acrylamide], on estrogen receptor [1], the “Estrogen Receptor Affinity” value was found to be 42. In the test with Ishikawa cells, the “% Activation (Compound + 1 nM 17β-estradiol)” value is 9% and the “% Activation” value is reported as 1%. For the same molecule, at estrogen receptor [2], the “% Activation with 1 nM 17β-estradiol” value amounted to 8% and the “% Activation” value turned out to be 4%.

As for `O=C(c1ccc(OCCN2CCCCC2)cc1)c1c(-c2ccc(O)cc2)sc2cc(O)ccc12` [raloxifene, reference compound], the “% Activation (Compound + 1 nM 17β-estradiol)” value in the test with Ishikawa cells was found to be 5%.

For `CC/C(=C(\c1ccccc1)c1ccc(OCCN(C)C)cc1)c1ccccc1` [tamoxifen, reference compound], in the test on Ishikawa cells, the “% Activation (Compound + 1 nM 17β-estradiol)” value is 45%.

For the molecule `Cc1c(-c2ccc(O)cc2)n(Cc2ccc(/C=C/C(=O)N3CCCC3)cc2)c2ccc(O)cc12` [Example 9, (E)-Pyrrolidino-3-{4-[5-hydroxy-2-(4-hydroxy-phenyl)-3-methyl-indol-1-ylmethyl]-phenyl}-acrylamide], in the test on Ishikawa cells, the “% Activation (Compound + 1 nM 17β-estradiol)” value is recorded as 11% and the “% Activation” value worked out at 3%. Further, on estrogen receptor [2], the “% Activation with 1 nM 17β-estradiol” value is 8% and the “% Activation” value amounted to 6%.

`CNC(=O)/C=C/c1ccc(Cn2c(-c3ccc(O)cc3)c(C)c3cc(O)ccc32)cc1` [Example 15, (E)-N, Methyl-3-{4-[5-hydroxy-2-(4-hydroxy-phenyl)-3-methyl-indol-1-ylmethyl]-phenyl}-acrylamide]: the “Estrogen Receptor Affinity” value at estrogen receptor [1] is listed as 53. Moreover, in the test with Ishikawa cells, the “% Activation (Compound + 1 nM 17β-estradiol)” value is 5% and the “% Activation” value was 0%. In addition, on estrogen receptor [2], the “% Activation with 1 nM 17β-estradiol” value is 31% and the “% Activation” value amounted to 15%.

For the molecule `C[C@]12CC[C@@H]3c4ccc(O)cc4CC[C@H]3[C@@H]1CC[C@H]2O` [17α-estradiol, reference compound], in the test with Ishikawa cells (Ishikawa cells, reference standards, read-out: ED50 values (95% C.I.), estrogenic activity by the alkaline phosphatase method), the EC50 is 1.42 nM.

Take `CCCCN(C)C(=O)/C=C/c1ccc(Cn2c(-c3ccc(O)cc3)c(C)c3cc(O)ccc32)cc1` [Example 12, (E)-N-Butyl, N'-methyl-3-{4-[5-hydroxy-2-(4-hydroxy-phenyl)-3-methyl-indol-1-ylmethyl]-phenyl}-acrylamide]: the “Estrogen Receptor Affinity” value at estrogen receptor [1] worked out at 114. In the test on Ishikawa cells, the “% Activation (Compound + 1 nM 17β-estradiol)” value stood at 16% and the “% Activation” value is on record as 7%. Also, at estrogen receptor [2], the “% Activation with 1 nM 17β-estradiol” value is recorded as 24% and the “% Activation” value came out at 13%.

On to `Cc1c(-c2ccc(O)cc2)n(Cc2ccc(/C=C/C(=O)NC(C)(C)C)cc2)c2ccc(O)cc12` [Example 8, 1(E)-N-tert-butyl-3-{4-[5-hydroxy-2-(4-hydroxy-phenyl)-3-methyl-indol-1-ylmethyl]-phenyl}-acrylamide], for which the “Estrogen Receptor Affinity” value at estrogen receptor [1] worked out at 40. In the test on Ishikawa cells, the “% Activation (Compound + 1 nM 17β-estradiol)” value amounted to 22% and the “% Activation” value was 10%. Besides, on estrogen receptor [2], the “% Activation with 1 nM 17β-estradiol” value amounted to 78% and the “% Activation” value stood at 6%.

Regarding `CCCCN(CCCC)C(=O)/C=C/c1ccc(Cn2c(-c3ccc(O)cc3)c(C)c3cc(O)ccc32)cc1` [Example 11, (E)-N, N-Dibutyl-3-{4-[5-hydroxy-2-(4-hydroxy-phenyl)-3-methyl-indol-1-ylmethyl]-phenyl}-acrylamide], at estrogen receptor [1], the “Estrogen Receptor Affinity” value was found to be 80. For the same molecule, in the test with Ishikawa cells, the “% Activation (Compound + 1 nM 17β-estradiol)” value is given as 11% and the “% Activation” value was found to be 6%. Moreover, at estrogen receptor [2], the “% Activation with 1 nM 17β-estradiol” value stood at 12% and the “% Activation” value is recorded as 8%.

Consider `Cc1c(-c2ccc(O)cc2)n(Cc2ccc(/C=C/C(=O)N(C)C)cc2)c2ccc(O)cc12` [Example 10, (E)-N, N-Dimethyl-3-{4-[5-hydroxy-2-(4-hydroxy-phenyl)-3-methyl-indol-1-ylmethyl]-phenyl}-acrylamide], for which, on estrogen receptor [1], the “Estrogen Receptor Affinity” value came out at 20. In addition, in the test with Ishikawa cells, the “% Activation (Compound + 1 nM 17β-estradiol)” value is listed as 19% and the “% Activation” value is on record as 6%. Besides, at estrogen receptor [2], the “% Activation with 1 nM 17β-estradiol” value was 2% and the “% Activation” value is on record as 1%.

For the origin of these results see patent EP0802184B1, “N-Benzyl-2-phenylindoles as estrogenic agents” (Wyeth, priority 1996, dated 1997).
